For 22 molecules, Ki results are on record in patent US9611277B2 (Janssen Pharmaceutica NV, priority 2013, dated 2017).

One assay concerns the target rat orexin 1 receptor (Rattus norvegicus, UniProt P56718). Put plainly: Rat orexin 1 receptor radioligand binding. The settings on record: rat orexin 1 receptor; averages of 2-20 runs; read-out: rOX1 Ki. A digest of the protocol:
(§1)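 Competition binding with the tritiated thiazolyl-pyrrolidinyl-methanone radioligand in PBS on homogenized rat or human OX1R-expressing cell suspensions, ≤0.1% DMSO; nonspecific binding defined with 10 μM almorexant. Bound radioactivity read by scintillation after filtration; IC50 from one-site competition fit, converted to Ki using pre-determined radioligand Kd.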

Another assay deals with human orexin 2 receptor (Homo sapiens (Human), UniProt O43614). As to the kind of experiment: Human orexin 2 receptor radioligand binding. The note with it: human orexin 2 receptor; averages of 2-20 runs; read-out: hOX2 Ki. A digest of the protocol:
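HEK293 cells stably expressing human OX2 receptor, homogenized, incubated with [3H]-EMPA and compounds (DMSO ≤0.1%); nonspecific binding with 10 μM almorexant. Filter-bound radioactivity counted by scintillation; IC50 from one-site competition fit of triplicates, Ki from IC50 and predetermined radioligand Kd, averaged over 2-20 runs.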

A further assay concerns the target human orexin 1 receptor (Homo sapiens, UniProt O43613). Put plainly: Human orexin 1 receptor radioligand binding. The note with it: human orexin 1 receptor; averages of 2-20 runs; read-out: hOX1 Ki. The method in brief: as §1

The structures appear in SMILES notation. Bounds are passed on as bounds.

Sequence of human orexin 2 receptor (O43614 whole entry): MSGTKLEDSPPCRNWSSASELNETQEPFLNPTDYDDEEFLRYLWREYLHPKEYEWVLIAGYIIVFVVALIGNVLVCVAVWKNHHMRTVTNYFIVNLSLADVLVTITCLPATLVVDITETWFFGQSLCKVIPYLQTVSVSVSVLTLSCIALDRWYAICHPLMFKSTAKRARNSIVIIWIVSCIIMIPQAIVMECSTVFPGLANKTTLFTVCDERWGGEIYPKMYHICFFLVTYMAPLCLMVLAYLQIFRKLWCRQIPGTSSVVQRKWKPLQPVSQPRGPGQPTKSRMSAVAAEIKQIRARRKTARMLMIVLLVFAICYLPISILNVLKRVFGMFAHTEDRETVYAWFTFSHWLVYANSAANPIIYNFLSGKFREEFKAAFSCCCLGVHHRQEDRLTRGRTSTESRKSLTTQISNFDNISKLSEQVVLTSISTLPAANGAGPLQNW

For the molecule `O=C(c1cccc(F)c1-c1ncccn1)N1C[C@H]2C[C@@H](Nc3ccc(Br)cn3)[C@@H]1C2` [Example 167, ((1S,4S,6R)-6-((5-bromopyridin-2-yl)amino)-2-azabicyclo[2.2.1]heptan-2-yl)(3-fluoro-2-(pyrimidin-2-yl)phenyl)methanone], the inhibition constant Ki on rat orexin 1 receptor worked out at 2 nM; at human orexin 2 receptor, 239 nM; at human orexin 1 receptor, 6 nM.

As to `O=C(c1c(F)cccc1-c1ncccn1)N1C[C@H]2C[C@@H](Nc3ccc(Br)cn3)[C@@H]1C2` [Example 168, ((1S,4S,6R)-6-((5-bromopyridin-2-yl)amino)-2-azabicyclo[2.2.1]heptan-2-yl)(2-fluoro-6-(pyrimidin-2-yl)phenyl)methanone], the Ki was determined as 2 nM on rat orexin 1 receptor, 351 nM on human orexin 2 receptor and 4 nM at human orexin 1 receptor.

As to `O=C(c1ccccc1-n1nccn1)N1C[C@H]2C[C@@H](Nc3ccc(Cl)cn3)[C@@H]1C2` [Example 169, (2-(2H-1,2,3-triazol-2-yl)phenyl)((1S,4S,6R)-6-((5-chloropyridin-2-yl)amino)-2-azabicyclo[2.2.1]heptan-2-yl)methanone], the inhibition constant (Ki) is 3 nM on rat orexin 1 receptor, 285 nM on human orexin 2 receptor and 4 nM at human orexin 1 receptor.

Regarding `O=C(c1cccc(F)c1-c1ncccn1)N1C[C@H]2C[C@@H](Nc3ccc(Cl)cn3)[C@@H]1C2` [Example 170, ((1S,4S,6R)-6-((5-chloropyridin-2-yl)amino)-2-azabicyclo[2.2.1]heptan-2-yl)(3-fluoro-2-(pyrimidin-2-yl)phenyl)methanone], the inhibitory constant (Ki) on rat orexin 1 receptor was found to be 4 nM; on human orexin 2 receptor, 321 nM; at human orexin 1 receptor it was 12 nM.

Consider `O=C(c1ccc(F)cc1-c1ncccn1)N1C[C@H]2C[C@@H](Nc3ccc(Cl)cn3)[C@@H]1C2` [Example 171, ((1S,4S,6R)-6-((5-chloropyridin-2-yl)amino)-2-azabicyclo[2.2.1]heptan-2-yl)(4-fluoro-2-(pyrimidin-2-yl)phenyl)methanone], for which the inhibition constant Ki on rat orexin 1 receptor is 27 nM; at human orexin 2 receptor it was 1900 nM; on human orexin 1 receptor, 25 nM.

In the case of `O=C(c1ccccc1-n1nccn1)N1C[C@H]2C[C@@H](Nc3ccc(C(F)F)cn3)[C@@H]1C2` [Example 173, (2-(2H-1,2,3-triazol-2-yl)phenyl)((1S,4S,6R)-6-((5-(difluoromethyl)pyridin-2-yl)amino)-2-azabicyclo[2.2.1]heptan-2-yl)methanone], the Ki at rat orexin 1 receptor came out at 55 nM; on human orexin 2 receptor, 264 nM; on human orexin 1 receptor, 33 nM.

Consider `O=C(c1cccc(F)c1-c1ncccn1)N1C[C@H]2C[C@@H](Nc3ccc(C(F)F)cn3)[C@@H]1C2` [Example 174, ((1S,4S,6R)-6-((5-(difluoromethyl)pyridin-2-yl)amino)-2-azabicyclo[2.2.1]heptan-2-yl)(3-fluoro-2-(pyrimidin-2-yl)phenyl)methanone], for which the values for the Ki at rat orexin 1 receptor, at human orexin 2 receptor and on human orexin 1 receptor were 18 nM, 230 nM and 15 nM, respectively.

Take `COc1ccc(N[C@@H]2C[C@H]3C[C@@H]2N(C(=O)c2ccccc2-n2nccn2)C3)nc1` [Example 175, (2-(2H-1,2,3-triazol-2-yl)phenyl)((1S,4S,6R)-6-((5-methoxypyridin-2-yl)amino)-2-azabicyclo[2.2.1]heptan-2-yl)methanone]: the figures for the inhibition constant (Ki) on rat orexin 1 receptor, on human orexin 2 receptor and at human orexin 1 receptor were 170 nM, 844 nM and 191 nM, respectively.

For `COc1ccc(N[C@@H]2C[C@H]3C[C@@H]2N(C(=O)c2cccc(F)c2-c2ncccn2)C3)nc1` [Example 176, (3-fluoro-2-(pyrimidin-2-yl)phenyl)((1S,4S,6R)-6-((5-methoxypyridin-2-yl)amino)-2-azabicyclo[2.2.1]heptan-2-yl)methanone], the values for the Ki at rat orexin 1 receptor, at human orexin 2 receptor and at human orexin 1 receptor were 56 nM, 1300 nM and 52 nM, respectively.

With `O=C(c1ccccc1-n1nccn1)N1C[C@H]2C[C@@H](Nc3ncc(C(F)(F)F)cc3F)[C@@H]1C2` [Example 177, (2-(2H-1,2,3-triazol-2-yl)phenyl)((1S,4S,6R)-6-((3-fluoro-5-(trifluoromethyl)pyridin-2-yl)amino)-2-azabicyclo[2.2.1]heptan-2-yl)methanone], the figures for the Ki at rat orexin 1 receptor, at human orexin 2 receptor and at human orexin 1 receptor were 3 nM, 200 nM and 3 nM, respectively.

Turning to `Cc1ccc(-n2nccn2)c(C(=O)N2C[C@H]3C[C@@H](Nc4ncc(C(F)(F)F)cc4F)[C@@H]2C3)n1` [Example 178, ((1S,4S,6R)-6-((3-fluoro-5-(trifluoromethyl)pyridin-2-yl)amino)-2-azabicyclo[2.2.1]heptan-2-yl)(6-methyl-3-(2H-1,2,3-triazol-2-yl)pyridin-2-yl)methanone], the Ki at rat orexin 1 receptor is 6 nM; at human orexin 2 receptor, 112 nM; at human orexin 1 receptor it was 8 nM.

For the molecule `O=C(c1cccc(F)c1-c1ncccn1)N1C[C@H]2C[C@@H](Nc3ncc(C(F)(F)F)cc3F)[C@@H]1C2` [Example 179, (3-fluoro-2-(pyrimidin-2-yl)phenyl)((1S,4S,6R)-6-((3-fluoro-5-(trifluoromethyl)pyridin-2-yl)amino)-2-azabicyclo[2.2.1]heptan-2-yl)methanone], the inhibition constant (Ki) at rat orexin 1 receptor came to 5 nM; at human orexin 2 receptor it was 217 nM; on human orexin 1 receptor, 5 nM.

For `O=C(c1ccccc1-c1ncc(F)cn1)N1C[C@H]2C[C@@H](Nc3ncc(C(F)(F)F)cc3F)[C@@H]1C2` [Example 180, ((1S,4S,6R)-6-((3-fluoro-5-(trifluoromethyl)pyridin-2-yl)amino)-2-azabicyclo[2.2.1]heptan-2-yl)(2-(5-fluoropyrimidin-2-yl)phenyl)methanone], the inhibition constant Ki on rat orexin 1 receptor stood at 6 nM; on human orexin 2 receptor it was 380 nM; at human orexin 1 receptor, 5 nM.

On to `Cc1ccc(-n2nccn2)c(C(=O)N2C[C@H]3C[C@@H](Nc4nc5ccccc5o4)[C@@H]2C3)n1` [Example 181, ((1S,4S,6R)-6-(benzo[d]oxazol-2-ylamino)-2-azabicyclo[2.2.1]heptan-2-yl)(6-methyl-3-(2H-1,2,3-triazol-2-yl)pyridin-2-yl)methanone], for which the Ki on rat orexin 1 receptor was found to be 5 nM; at human orexin 2 receptor it was 163 nM; on human orexin 1 receptor, 8 nM.

For `O=C(c1cccc(F)c1-n1nccn1)N1C[C@H]2C[C@@H](Nc3nc4ccccc4o3)[C@@H]1C2` [Example 182, ((1S,4S,6R)-6-(benzo[d]oxazol-2-ylamino)-2-azabicyclo[2.2.1]heptan-2-yl)(3-fluoro-2-(2H-1,2,3-triazol-2-yl)phenyl)methanone], the inhibition constant (Ki) was found to be 3 nM on rat orexin 1 receptor, 218 nM at human orexin 2 receptor and 4 nM at human orexin 1 receptor.

For the molecule `O=C(c1cccc(F)c1-c1ncccn1)N1C[C@H]2C[C@@H](Nc3nc4ccccc4o3)[C@@H]1C2` [Example 183, ((1S,4S,6R)-6-(benzo[d]oxazol-2-ylamino)-2-azabicyclo[2.2.1]heptan-2-yl)(3-fluoro-2-(pyrimidin-2-yl)phenyl)methanone], the values for the inhibition constant (Ki) on rat orexin 1 receptor, at human orexin 2 receptor and on human orexin 1 receptor were 5 nM, 206 nM and 7 nM, respectively.

Take `Cc1ccc(N[C@@H]2C[C@H]3C[C@@H]2N(C(=O)c2cccc(F)c2-c2ncccn2)C3)cc1` [Example 184, (3-fluoro-2-(pyrimidin-2-yl)phenyl)((1S,4S,6R)-6-(p-tolylamino)-2-azabicyclo[2.2.1]heptan-2-yl)methanone]: the Ki at rat orexin 1 receptor was determined as 13 nM; at human orexin 2 receptor, 337 nM; at human orexin 1 receptor it was 15 nM.

Regarding `O=C(c1cccc2cc[nH]c12)N1C[C@H]2C[C@@H](Nc3ccc(C(F)(F)F)cn3)[C@@H]1C2` [Example 185, (1H-indol-7-yl)((1S,4S,6R)-6-((5-(trifluoromethyl)pyridin-2-yl)amino)-2-azabicyclo[2.2.1]heptan-2-yl)methanone], the values for the inhibition constant (Ki) on rat orexin 1 receptor, on human orexin 2 receptor and on human orexin 1 receptor were 27 nM, 146 nM and 33 nM, respectively.

Consider `O=C(c1cccc2cn[nH]c12)N1C[C@H]2C[C@@H](Nc3ccc(C(F)(F)F)cn3)[C@@H]1C2` [Example 186, (1H-indazol-7-yl)((1S,4S,6R)-6-((5-(trifluoromethyl)pyridin-2-yl)amino)-2-azabicyclo[2.2.1]heptan-2-yl)methanone], for which the Ki was 123 nM at rat orexin 1 receptor, 2700 nM on human orexin 2 receptor and 151 nM at human orexin 1 receptor.

As to `Cc1cnc(C(=O)N2C[C@H]3C[C@@H](Nc4cnc(C(F)(F)F)cn4)[C@@H]2C3)c(-n2nccn2)c1` [Example 187, (5-methyl-3-(2H-1,2,3-triazol-2-yl)pyridin-2-yl)((1S,4S,6R)-6-((5-(trifluoromethyl)pyrazin-2-yl)amino)-2-azabicyclo[2.2.1]heptan-2-yl)methanone], the Ki on rat orexin 1 receptor was found to be 28 nM; on human orexin 2 receptor, 1600 nM; at human orexin 1 receptor it was 30 nM.

Consider `O=C(c1cccnc1-n1nccn1)N1C[C@H]2C[C@@H](Nc3cnc(C(F)(F)F)cn3)[C@@H]1C2` [Example 188, (2-(2H-1,2,3-triazol-2-yl)pyridin-3-yl)((1S,4S,6R)-6-((5-(trifluoromethyl)pyrazin-2-yl)amino)-2-azabicyclo[2.2.1]heptan-2-yl)methanone], for which the inhibitory constant (Ki) on rat orexin 1 receptor is 191 nM; on human orexin 2 receptor, over 10000 nM; at human orexin 1 receptor it was 210 nM.

`O=C(c1ncccc1-c1ncccn1)N1C[C@H]2C[C@@H](Nc3cnc(C(F)(F)F)cn3)[C@@H]1C2` [Example 189, (3-(pyrimidin-2-yl)pyridin-2-yl)((1S,4S,6R)-6-((5-(trifluoromethyl)pyrazin-2-yl)amino)-2-azabicyclo[2.2.1]heptan-2-yl)methanone]: the inhibition constant (Ki) at rat orexin 1 receptor was found to be 14 nM; at human orexin 2 receptor it was 678 nM; on human orexin 1 receptor, 11 nM.

As a reminder, the Ki is the dissociation constant of the complex between target and ligand, obtained from inhibition or displacement.
